# “Also recorded” adds a separate entry of the source.
# Experiments:
# [1] = system: human tumor Tregs (TI-Tregs); assay: viability of sorted tumor Tregs vs peripheral Tregs at peripheral-Treg EC20 dose; type: cell-based; details: at peripheral-Treg EC20 (IC20) dose; TI-Tregs from clear cell renal carcinoma expanded ex vivo
# Method: To reduce study complexity and cost, the inventors first assessed the effect of a library of 1,554 FDA-approved and investigational compounds on human-derived P-Treg viability at a single, relatively large concentration (5 μM). For this screen, human P-Tregs were flow sorted, expanded ex vivo, and drug treated in a 96-well plate format (FIG. 6A). The inventors then selected 195 compounds that inhibited P-Treg viability ≥60% (FIG. 6B). To further reduce the number of candidate drugs, the inventors then generated 10-point drug response curves to identify the 48 h EC20 concentration of the 195 compounds, then selected a repertoire of 86 compounds with the lowest EC20 for efficient perturbational profile analysis in a 96-well format, when considering inclusion of vehicle controls (DMSO). As previously reported (Bush et al., 2017; Douglass et al., 2020), the 48 h EC20 (maximum sublethal) concentration was selected to effectively assess the 24 h drug mechanism of action, while reducing confounding effects arising from activation of cell stress or death pathways. Finally, the EC20 concentration of each compound was then used to perturb TI-Tregs flow-sorted from a chemo-naïve human clear cell carcinoma specimen and expanded ex vivo, into 96-well plates, followed by RNA-seq profiling using the fully automated PLATE-Seq technology (Bush et al., 2017; Douglass et al., 2020). Viability, as well as perturbational RNA-seq profiles of TI-Tregs were collected (FIGS. 6C-D). […]
# [2] = system: TI-Treg MR proteins (17-MR protein signature); assay: PLATE-Seq perturbational RNA-seq of TI-Tregs with VIPER / OncoTreat analysis; type: cell-based, human; details: for patient-by-patient inhibition of TI-Treg vs P-Treg MR activity (OncoTreat): individual TI- vs. P-Treg signatures of all 36 patients
# Method: To reduce study complexity and cost, the inventors first assessed the effect of a library of 1,554 FDA-approved and investigational compounds on human-derived P-Treg viability at a single, relatively large concentration (5 μM). For this screen, human P-Tregs were flow sorted, expanded ex vivo, and drug treated in a 96-well plate format (FIG. 6A). The inventors then selected 195 compounds that inhibited P-Treg viability ≥60% (FIG. 6B). To further reduce the number of candidate drugs, the inventors then generated 10-point drug response curves to identify the 48 h EC20 concentration of the 195 compounds, then selected a repertoire of 86 compounds with the lowest EC20 for efficient perturbational profile analysis in a 96-well format, when considering inclusion of vehicle controls (DMSO). As previously reported (Bush et al., 2017; Douglass et al., 2020), the 48 h EC20 (maximum sublethal) concentration was selected to effectively assess the 24 h drug mechanism of action, while reducing confounding effects arising from activation of cell stress or death pathways. Finally, the EC20 concentration of each compound was then used to perturb TI-Tregs flow-sorted from a chemo-naïve human clear cell carcinoma specimen and expanded ex vivo, into 96-well plates, followed by RNA-seq profiling using the fully automated PLATE-Seq technology (Bush et al., 2017; Douglass et al., 2020). Viability, as well as perturbational RNA-seq profiles of TI-Tregs were collected (FIGS. 6C-D). By using the differential protein activity signature in drug- vs. vehicle control-treated TI-Tregs, we identified the compounds capable of inducing the most statistically significant inactivation of TI-Treg-specific MR proteins (OncoTreat algorithm (Alvarez et al., 2018). From this analysis, 32 compounds were nominated as statistically significant inhibitors of the 17-MR protein signature (FIG. 7B), seven of which preferentially depleted TI-Treg vs. P-Treg viability in vitro (FIGS. 6C-D), and which were also found to inhibit patient-by-patient TI-Treg vs P-Treg MRs across all tumor types and nearly all patients (FIG. 6E).
# Wells of drug-treated Tregs were RNA-Sequenced and each normalized with viperSignature against the internal DMSO-control wells on the same PLATE. VIPER was run on the normalized gene expression using the T-cell ARACNe network inferred from sorted bulk-RNA-Sequencing clinical data. Drugs were ranked on their overall inversion across patients of the 17-gene Master Regulator signature previously identified and validated by CRISPR (FIG. 7B), as well as on their patient-by-patient inversion of Tumor-Treg vs Peripheral-Treg protein activity signature by OncoTreat (FIG. 6E).
# [3] = system: MC38 syngeneic tumor model; assay: MC38 tumor growth and survival in immune-competent C57BL/6J mice; type: in vivo
# Method: 10 C57BL/6J mice per treatment arm were implanted with subcutaneous MC38 tumor cells. Treatment was initiated after 12 days of initial tumor growth, at which point mice were monitored for tumor volume until exceeding 1000 mm^3 or ulceration exceeding a diameter of 5 mm. […] Floxuridine and triapine were IP daily from day 12-18 at 1 mg/kg and 5 mg/kg, respectively, also reflecting 1/10th the standard murine dose. Mice receiving anti-PD-1 were administered anti-PD-1 IP on days 12, 15, and 18.
# MC38 tumors = assay: MC38 tumor growth and survival in immune-deficient NSG mice; type: in vivo
# Method: To assess whether low-dose gemcitabine effects were immune-mediated, we performed parallel dose titrations in immune-competent C57BL/6J mice and severely immune-deficient NSG (NOD.Cg-Prkdc^scid Il2rg^tm1Wj1/SzJ) mice lacking both innate and adaptive immunity.
# To test whether immune-dependent activity could be observed in this range of concentrations, we dosed cohorts of mice with 1-10 mg/kg gemcitabine, with an additional cohort of C57BL/6J mice receiving anti-PD-1 in combination.
# To further assess the doses at which gemcitabine inhibits tumor growth and the immune-mediated effects of gemcitabine, the inventors performed parallel dose titrations of Gem in immune-competent C57BL/6J mice and immune-deficient NSG (NOD.Cg-Prkdc^scid Il2rg^tm1Wjl/SzJ) mice, administering doses ranging from 0.12 mg/kg up to 120 mg/kg as shown in FIGS. 4D-E. At least 5 mice were treated per treatment arm. Doses were administered IP on days 12, 15, and 18, and treatment response was assessed by and Kaplan-Meier test (FIG. 8E).
# [4] = system: TRC3 cluster Tregs (enriched for TI-Treg MRs); assay: scRNA-seq of MC38 tumor- and spleen-derived Tregs after gemcitabine; type: in vivo, FoxP3Yfp-Cre mice; details: 24 hours after single 12 mg/kg dose
Structure (SMILES),differential TI-Treg vs. P-Treg viability reduction (toxicity) [1],patient-by-patient inhibition of TI-Treg vs P-Treg MR activity (OncoTreat) [2],"tumor growth inhibition ([3]; triapine 5 mg/kg IP daily day 12-18, alone or with anti-PD-1)","efficacy in dose titration (MC38 tumors; between 12 mg/kg and 1.2 mg/kg, NSG)","activity in NSG mice (MC38 tumors; gemcitabine 3 mg/kg, p=0.84)","tumor growth relative to vehicle control (MC38 tumors; gemcitabine 120 mg/kg, NSG, p<0.001 by Cox regression)","inhibition (down-regulation) of the 17-MR TI-Treg protein activity signature ([2]; TI-Tregs treated at EC20, 24 h, drug vs DMSO, VIPER protein activity)","efficacy in dose titration ([3]; between 12 mg/kg and 1.2 mg/kg, C57BL/6J)",dose range found to be immunogenic ([3]; dosed Q3D),"advantage in C57BL/6 vs NSG mice ([3]; gemcitabine 1.2 mg/kg, p=0.09)","survival C57BL/6J vs. NSG ([3]; gemcitabine 10 mg/kg, p=0.253)","tumor growth kinetics vs vehicle ([3]; gemcitabine 12 mg/kg IP days 12, 15, 18, late stage MC38, p=0.003)","survival vs vehicle ([3]; gemcitabine 12 mg/kg IP days 12, 15, 18, late stage MC38, p=0.006)","tumor growth relative to vehicle control ([3]; gemcitabine 120 mg/kg, C57BL/6J, p<0.001 by Cox regression)","difference between C57BL/6J and NSG strains ([3]; gemcitabine 120 mg/kg, p=0.19)",TRC1 occupancy [4],change of TRC3 occupancy in spleen population ([4]; spleen),"TRC3 cluster frequency among TI-Tregs ([4]; tumor, vehicle 30.1%, p=1.51e-20)","tumor growth inhibition ([3]; floxuridine 1 mg/kg IP daily day 12-18, alone or with anti-PD-1)"
NC(=S)N/N=C/c1ncccc1N [triapine],among the top 6 inducing the most significant differential TI- vs. P-Treg viability reduction,among the seven most significant TI-Treg MR activity inhibitors,gemcitabine was the only treatment found to significantly inhibit tumor growth,–,–,–,–,–,–,–,–,–,–,–,–,–,–,–,–
Nc1ccn([C@@H]2O[C@H](CO)[C@@H](O)C2(F)F)c(=O)n1 [gemcitabine],preferential cytotoxic capacity against TI-Tregs; also recorded: preferentially toxic to TI-Tregs; also recorded: among the top 6 inducing the most significant differential TI- vs. P-Treg viability reduction,among the seven most significant TI-Treg MR activity inhibitors,–,efficacy was lost,lack any activity,inhibited tumor growth,inhibits transcriptional activity of TI-Treg MRs,efficacy was lost,3 to 10 mg/kg,trending but non-significant advantage,trending survival advantage,significantly inhibit tumor growth; also recorded: significant reduction in growth kinetics,prolongation of survival,inhibited tumor growth,no significant difference,proportional increase,virtually no change,14.9%,–
O=c1[nH]c(=O)n([C@H]2C[C@H](O)[C@@H](CO)O2)cc1F [floxuridine],among the top 6 inducing the most significant differential TI- vs. P-Treg viability reduction,among the seven most significant TI-Treg MR activity inhibitors,–,–,–,–,–,–,–,–,–,–,–,–,–,–,–,–,gemcitabine was the only treatment found to significantly inhibit tumor growth
